From ChEMBL document CHEMBL1137682, “Synthesis, characterization and structure-activity relationship analysis of novel depsides as potential antibacterials” (2009)
Values after ≈ are worked out from the molar mass of the structure shown.

Legend:
Assay type in all cases: functional
Enterobacter cloacae = assay: Antibacterial activity against Enterobacter cloacae ATCC 13047 after 24 hrs by MTT assay; conditions: ATCC 13047, 24 h
Pseudomonas aeruginosa = assay: Antibacterial activity against sPseudomonas aeruginosa ATCC 13525 after 24 hrs by MTT assay; conditions: ATCC 13525, 24 h
Enterococcus faecalis = assay: microbe, parasite or virus in culture; conditions: ATCC 9790, 24 h
Escherichia coli = assay: Antibacterial activity against Escherichia coli ATCC 35218 after 24 hrs by MTT assay; conditions: ATCC 35218, 24 h
Staphylococcus aureus = assay: Antibacterial activity against Staphylococcus aureus ATCC 6538 after 24 hrs by MTT assay; conditions: ATCC 6538, 24 h
Bacillus subtilis = assay: Antibacterial activity against Bacillus subtilis ATCC 6633 after 24 hrs by MTT assay; conditions: ATCC 6633, 24 h

SMILES	MIC (Enterobacter cloacae)	MIC (Pseudomonas aeruginosa)	MIC (Enterococcus faecalis)	MIC (Escherichia coli)	MIC (Staphylococcus aureus)	MIC (Bacillus subtilis)
COC(=O)Cc1ccccc1OC(=O)Cc1ccc(OC)c(OC)c1	6.25 µg/mL (≈ 18.1 µM)	6.25 µg/mL (≈ 18.1 µM)	> 50 µg/mL	> 50 µg/mL	> 50 µg/mL	25 µg/mL (≈ 72.6 µM)
COC(=O)Cc1ccccc1OC(=O)Cc1ccc(Cl)cc1	12.5 µg/mL (≈ 39.2 µM)	> 50 µg/mL	25 µg/mL (≈ 78.4 µM)	6.25 µg/mL (≈ 19.6 µM)	3.12 µg/mL (≈ 9.8 µM)	12.5 µg/mL (≈ 39.2 µM)
CCOC(=O)Cc1ccccc1OC(=O)Cc1ccc(F)cc1	12.5 µg/mL (≈ 39.5 µM)	> 50 µg/mL	6.25 µg/mL (≈ 19.8 µM)	25 µg/mL (≈ 79 µM)	25 µg/mL (≈ 79 µM)	12.5 µg/mL (≈ 39.5 µM)
COC(=O)Cc1ccccc1O	6.25 µg/mL (≈ 37.6 µM)	25 µg/mL (≈ 150 µM)	12.5 µg/mL (≈ 75.2 µM)	12.5 µg/mL (≈ 75.2 µM)	6.25 µg/mL (≈ 37.6 µM)	12.5 µg/mL (≈ 75.2 µM)
CCOC(=O)Cc1ccccc1OC(=O)Cc1cccc(Cl)c1	25 µg/mL (≈ 75.1 µM)	> 50 µg/mL	6.25 µg/mL (≈ 18.8 µM)	6.25 µg/mL (≈ 18.8 µM)	6.25 µg/mL (≈ 18.8 µM)	3.12 µg/mL (≈ 9.39 µM)
CCOC(=O)Cc1ccccc1OC(=O)Cc1cccc(OC)c1	> 50 µg/mL	6.25 µg/mL (≈ 19 µM)	12.5 µg/mL (≈ 38.1 µM)	25 µg/mL (≈ 76.1 µM)	> 50 µg/mL	> 50 µg/mL
COC(=O)Cc1ccccc1OC(=O)c1cccc([N+](=O)[O-])c1	12.5 µg/mL (≈ 39.6 µM)	6.25 µg/mL (≈ 19.8 µM)	1.56 µg/mL (≈ 4.95 µM)	3.12 µg/mL (≈ 9.91 µM)	1.56 µg/mL (≈ 4.95 µM)	0.78 µg/mL (≈ 2.47 µM)
CCOC(=O)Cc1ccccc1OC(=O)Cc1ccc(OCC)c(OCC)c1	3.12 µg/mL (≈ 8.09 µM)	3.12 µg/mL (≈ 8.09 µM)	1.56 µg/mL (≈ 4.04 µM)	1.56 µg/mL (≈ 4.04 µM)	3.12 µg/mL (≈ 8.09 µM)	12.5 µg/mL (≈ 32.3 µM)
CN(C)[C@@H]1C(O)=C(C(N)=O)C(=O)[C@@]2(O)C(O)=C3C(=O)c4c(O)cccc4[C@@](C)(O)[C@H]3C[C@@H]12 [TETRACYCLINE]	1.56 µg/mL (≈ 3.51 µM)	1.56 µg/mL (≈ 3.51 µM)	0.78 µg/mL (≈ 1.76 µM)	6.25 µg/mL (≈ 14.1 µM)	1.56 µg/mL (≈ 3.51 µM)	1.56 µg/mL (≈ 3.51 µM)
CCOc1ccc(CC(=O)Oc2ccccc2CC(=O)OC)cc1OCC	3.12 µg/mL (≈ 8.39 µM)	3.12 µg/mL (≈ 8.39 µM)	3.12 µg/mL (≈ 8.39 µM)	1.56 µg/mL (≈ 4.19 µM)	1.56 µg/mL (≈ 4.19 µM)	> 50 µg/mL
CCOC(=O)Cc1ccccc1OC(=O)c1cc(OC)cc(OC)c1	25 µg/mL (≈ 72.6 µM)	6.25 µg/mL (≈ 18.1 µM)	25 µg/mL (≈ 72.6 µM)	> 50 µg/mL	> 50 µg/mL	> 50 µg/mL
COC(=O)Cc1ccccc1OC(=O)c1ccc(Cl)cc1	25 µg/mL (≈ 82 µM)	25 µg/mL (≈ 82 µM)	12.5 µg/mL (≈ 41 µM)	> 50 µg/mL	> 50 µg/mL	25 µg/mL (≈ 82 µM)
CCOC(=O)Cc1ccccc1OC(=O)Cc1cccc(Br)c1	> 50 µg/mL	25 µg/mL (≈ 66.3 µM)	> 50 µg/mL	6.25 µg/mL (≈ 16.6 µM)	> 50 µg/mL	1.56 µg/mL (≈ 4.14 µM)
CCOC(=O)Cc1ccccc1OC(=O)c1ccc(C)cc1	6.25 µg/mL (≈ 20.9 µM)	12.5 µg/mL (≈ 41.9 µM)	> 50 µg/mL	3.12 µg/mL (≈ 10.5 µM)	> 50 µg/mL	25 µg/mL (≈ 83.8 µM)
CCOC(=O)Cc1ccccc1O	12.5 µg/mL (≈ 69.4 µM)	12.5 µg/mL (≈ 69.4 µM)	25 µg/mL (≈ 139 µM)	25 µg/mL (≈ 139 µM)	12.5 µg/mL (≈ 69.4 µM)	6.25 µg/mL (≈ 34.7 µM)
CCOC(=O)Cc1ccccc1OC(=O)Cc1ccc(OC)c(OC)c1	6.25 µg/mL (≈ 17.4 µM)	12.5 µg/mL (≈ 34.9 µM)	> 50 µg/mL	> 50 µg/mL	25 µg/mL (≈ 69.8 µM)	12.5 µg/mL (≈ 34.9 µM)
CC1(C)S[C@@H]2[C@H](NC(=O)Cc3ccccc3)C(=O)N2[C@H]1C(=O)O [PENICILLIN G]	3.12 µg/mL (≈ 9.35 µM)	6.25 µg/mL (≈ 18.7 µM)	1.56 µg/mL (≈ 4.67 µM)	6.25 µg/mL (≈ 18.7 µM)	1.56 µg/mL (≈ 4.67 µM)	1.56 µg/mL (≈ 4.67 µM)
